Values quoted from earlier work in patent publication US10695287B2, “AMPK agonist topical medication for the treatment of certain specific medical conditions, methods of use thereof and wound dressing employing the same” (CERSCI THERAPEUTICS, INC., priority 2015, dated 2020).

Tested on: AMPK
Settings: topical administration; animal model (rodents); literature (Price et al. 2013; Tillu et al. 2012)

## Oc1ccc(C=Cc2cc(O)cc(O)c2)cc1 [resveratrol]
  mitigation of pain: has shown efficacy in mitigation of pain
